According to publication PMC10033419, “Blocking NS3–NS4B interaction inhibits dengue virus in non-human primates” (Nature, 2023):
≈ marks a conversion by molar mass, not a printed value. Where two headings read alike, the source gives them in different places.

System: DENV-2 RL
Assay: microbe, parasite or virus in culture
Type: cell-based
Conditions: Dengue virus, DENV2, Vero

Q: Which EC50 (read-out: EC50 values [Well 2], A sample, passage 18) does the source give for `COc1cc(N[C@H](C(=O)c2c[nH]c3ccc(OC(F)(F)F)cc23)c2ccc(Cl)cc2OC)cc(S(C)(=O)=O)c1` [JNJ-1802] here?
A: Its EC50 is 3.13 ng/mL (≈ 5.37 nM).

Q: What about the EC50 (read-out: EC50 values [Well 2], A sample, passage 20) of the same compound?
A: The EC50 was 12.5 ng/mL (≈ 21.4 nM).

Q: What about the EC50 (read-out: EC50 values [Well 2], A sample, passage 21) of the same compound?
A: Its EC50 is 12.5 ng/mL (≈ 21.4 nM).

Q: And the EC50 (read-out: EC50 values [Well 2], A sample, passage 22)?
A: Its EC50 is 12.5 ng/mL (≈ 21.4 nM).

Q: What about the EC50 (read-out: EC50 values [Well 2], A sample, passage 23) of the same compound?
A: Its EC50 is 12.5 ng/mL (≈ 21.4 nM).

Q: And the EC50 (read-out: EC50 values [Well 2], A sample, passage 24)?
A: Its EC50 is 25 ng/mL (≈ 42.9 nM).

Q: What about the EC50 (read-out: EC50 values [Well 2], A sample, passage 25) of the same compound?
A: The EC50 was 25 ng/mL (≈ 42.9 nM).

Q: And the EC50 (read-out: EC50 values [Well 2], A sample, passage 26)?
A: Its EC50 is 50 ng/mL (≈ 85.8 nM).

Q: And the EC50 (read-out: EC50 values [Well 2], A sample, passage 27)?
A: Its EC50 is 100 ng/mL (≈ 172 nM).

Q: And the EC50 (read-out: EC50 values [Well 2], A sample, passage 28)?
A: Its EC50 is 100 ng/mL (≈ 172 nM).

Q: And the EC50 (read-out: EC50 values [Well 2], A sample, passage 29)?
A: The EC50 was 100 ng/mL (≈ 172 nM).

Q: What about the EC50 (read-out: EC50 values [Well 2], A sample, passage 30) of the same compound?
A: Its EC50 is 100 ng/mL (≈ 172 nM).

Q: What about the EC50 (read-out: EC50 values [Well 2], A sample, passage 31) of the same compound?
A: Its EC50 is 50 ng/mL (≈ 85.8 nM).

Q: What about the EC50 (read-out: EC50 values [Well 2], A sample, passage 32) of the same compound?
A: Its EC50 is 50 ng/mL (≈ 85.8 nM).

Q: What about the EC50 (read-out: EC50 values [Well 2], A sample, passage 33) of the same compound?
A: The EC50 was 100 ng/mL (≈ 172 nM).

Q: What about the EC50 (read-out: EC50 values [Well 2], A sample, passage 34) of the same compound?
A: The EC50 was 100 ng/mL (≈ 172 nM).

Q: And the EC50 (read-out: EC50 values [Well 2], A sample, passage 35)?
A: Its EC50 is 100 ng/mL (≈ 172 nM).

Q: And the EC50 (read-out: EC50 values [Well 2], A sample, passage 36)?
A: The EC50 was 100 ng/mL (≈ 172 nM).

Q: And the EC50 (read-out: EC50 values [Well 2], A sample, passage 37)?
A: Its EC50 is 200 ng/mL (≈ 343 nM).

Q: And the EC50 (read-out: EC50 values [Well 2], A sample, passage 38)?
A: The EC50 was 200 ng/mL (≈ 343 nM).

Q: What about the EC50 (read-out: EC50 values [Well 2], A sample, passage 39) of the same compound?
A: The EC50 was 500 ng/mL (≈ 858 nM).

Q: What about the EC50 (read-out: EC50 values [Well 2], A sample, passage 40) of the same compound?
A: Its EC50 is 500 ng/mL (≈ 858 nM).

Q: What about the EC50 (read-out: EC50 values [Well 2], A sample, passage 41) of the same compound?
A: The EC50 was 500 ng/mL (≈ 858 nM).

Q: What about the EC50 (read-out: EC50 values [Well 2], A sample, passage 42 (END)) of the same compound?
A: The EC50 was 500 ng/mL (≈ 858 nM).

Q: And the EC50 (read-out: EC50 values [Well 2], B sample, passage 1)?
A: Its EC50 is 0.024 ng/mL (≈ 0.0412 nM).

Q: What about the EC50 (read-out: EC50 values [Well 2], B sample, passage 2) of the same compound?
A: Its EC50 is 0.024 ng/mL (≈ 0.0412 nM).

Q: What about the EC50 (read-out: EC50 values [Well 2], B sample, passage 3) of the same compound?
A: The EC50 was 0.024 ng/mL (≈ 0.0412 nM).

Q: What about the EC50 (read-out: EC50 values [Well 2], B sample, passage 4) of the same compound?
A: Its EC50 is 0.024 ng/mL (≈ 0.0412 nM).

Q: And the EC50 (read-out: EC50 values [Well 2], B sample, passage 5)?
A: The EC50 was 0.024 ng/mL (≈ 0.0412 nM).

Q: And the EC50 (read-out: EC50 values [Well 2], B sample, passage 6)?
A: Its EC50 is 0.049 ng/mL (≈ 0.0841 nM).

Q: And the EC50 (read-out: EC50 values [Well 2], B sample, passage 7)?
A: The EC50 was 0.049 ng/mL (≈ 0.0841 nM).

Q: What about the EC50 (read-out: EC50 values [Well 2], B sample, passage 8) of the same compound?
A: Its EC50 is 0.049 ng/mL (≈ 0.0841 nM).

Q: And the EC50 (read-out: EC50 values [Well 2], B sample, passage 9)?
A: The EC50 was 0.049 ng/mL (≈ 0.0841 nM).

Q: What about the EC50 (read-out: EC50 values [Well 2], B sample, passage 10) of the same compound?
A: The EC50 was 0.049 ng/mL (≈ 0.0841 nM).

Q: And the EC50 (read-out: EC50 values [Well 2], B sample, passage 13)?
A: Its EC50 is 0.195 ng/mL (≈ 0.334 nM).

Q: What about the EC50 (read-out: EC50 values [Well 2], B sample, passage 14) of the same compound?
A: The EC50 was 0.049 ng/mL (≈ 0.0841 nM).

Q: What about the EC50 (read-out: EC50 values [Well 2], B sample, passage 15) of the same compound?
A: Its EC50 is 0.049 ng/mL (≈ 0.0841 nM).

Q: And the EC50 (read-out: EC50 values [Well 2], B sample, passage 19)?
A: The EC50 was 0.195 ng/mL (≈ 0.334 nM).

Q: And the EC50 (read-out: EC50 values [Well 2], B sample, passage 20)?
A: Its EC50 is 0.195 ng/mL (≈ 0.334 nM).

Q: What about the EC50 (read-out: EC50 values [Well 2], B sample, passage 21) of the same compound?
A: Its EC50 is 0.195 ng/mL (≈ 0.334 nM).

Q: And the EC50 (read-out: EC50 values [Well 2], B sample, passage 22)?
A: Its EC50 is 0.195 ng/mL (≈ 0.334 nM).

Q: What about the EC50 (read-out: EC50 values [Well 2], B sample, passage 23) of the same compound?
A: The EC50 was 0.391 ng/mL (≈ 0.671 nM).

Q: What about the EC50 (read-out: EC50 values [Well 2], B sample, passage 25) of the same compound?
A: The EC50 was 1.56 ng/mL (≈ 2.68 nM).

Q: And the EC50 (read-out: EC50 values [Well 2], B sample, passage 26)?
A: The EC50 was 3.13 ng/mL (≈ 5.37 nM).

Q: And the EC50 (read-out: EC50 values [Well 2], B sample, passage 27)?
A: Its EC50 is 3.13 ng/mL (≈ 5.37 nM).

Q: What about the EC50 (read-out: EC50 values [Well 2], B sample, passage 28) of the same compound?
A: Its EC50 is 3.13 ng/mL (≈ 5.37 nM).

Q: And the EC50 (read-out: EC50 values [Well 2], B sample, passage 29)?
A: The EC50 was 12.5 ng/mL (≈ 21.4 nM).

Q: And the EC50 (read-out: EC50 values [Well 2], B sample, passage 31)?
A: The EC50 was 15.6 ng/mL (≈ 26.8 nM).

Q: What about the EC50 (read-out: EC50 values [Well 2], B sample, passage 32) of the same compound?
A: Its EC50 is 15.6 ng/mL (≈ 26.8 nM).

Q: And the EC50 (read-out: EC50 values [Well 2], B sample, passage 33)?
A: Its EC50 is 31.3 ng/mL (≈ 53.7 nM).

Q: And the EC50 (read-out: EC50 values [Well 2], B sample, passage 34)?
A: The EC50 was 31.3 ng/mL (≈ 53.7 nM).

Q: And the EC50 (read-out: EC50 values [Well 2], B sample, passage 35)?
A: Its EC50 is 31.3 ng/mL (≈ 53.7 nM).

Q: And the EC50 (read-out: EC50 values [Well 2], B sample, passage 36)?
A: The EC50 was 31.3 ng/mL (≈ 53.7 nM).

Q: What about the EC50 (read-out: EC50 values [Well 2], B sample, passage 37) of the same compound?
A: Its EC50 is 31.3 ng/mL (≈ 53.7 nM).

Q: What about the EC50 (read-out: EC50 values [Well 2], B sample, passage 38) of the same compound?
A: Its EC50 is 31.3 ng/mL (≈ 53.7 nM).

Q: And the EC50 (read-out: EC50 values [Well 2], B sample, passage 39)?
A: The EC50 was 62.5 ng/mL (≈ 107 nM).

Q: What about the EC50 (read-out: EC50 values [Well 2], B sample, passage 40) of the same compound?
A: The EC50 was 125 ng/mL (≈ 214 nM).

Q: And the EC50 (read-out: EC50 values [Well 2], B sample, passage 41)?
A: Its EC50 is 250 ng/mL (≈ 429 nM).

Q: And the EC50 (read-out: EC50 values [Well 2], B sample, passage 42)?
A: Its EC50 is 250 ng/mL (≈ 429 nM).

Q: What about the EC50 (read-out: EC50 values [Well 2], B sample, passage 43) of the same compound?
A: The EC50 was 250 ng/mL (≈ 429 nM).

Q: And the EC50 (read-out: EC50 values [Well 2], B sample, passage 44)?
A: The EC50 was 250 ng/mL (≈ 429 nM).

Q: And the EC50 (read-out: EC50 values [Well 2], B sample, passage 45)?
A: Its EC50 is 250 ng/mL (≈ 429 nM).

Q: And the EC50 (read-out: EC50 values [Well 2], B sample, passage 46)?
A: The EC50 was 250 ng/mL (≈ 429 nM).

Q: What about the EC50 (read-out: EC50 values [Well 2], B sample, passage 47) of the same compound?
A: Its EC50 is 250 ng/mL (≈ 429 nM).

Q: What about the EC50 (read-out: EC50 values [Well 2], B sample, passage 48) of the same compound?
A: Its EC50 is 500 ng/mL (≈ 858 nM).

Q: What about the EC50 (read-out: EC50 values [Well 2], B sample, passage 49) of the same compound?
A: Its EC50 is 500 ng/mL (≈ 858 nM).

Q: What about the EC50 (read-out: EC50 values [Well 2], B sample, passage 50 (END)) of the same compound?
A: The EC50 was 500 ng/mL (≈ 858 nM).
